Test results: patent US20090075972A1, “Use of Midostaurin for Treating Gastrointestinal Stromal Tumors” (priority 2004, published 2009)
Like-named read-outs stand apart in the source and are kept apart here.

Key:
[1] = target: KITInsAY502-503/V654A (Homo sapiens, UniProt P10721, INS503AY/V654A); details: KITIns503AY/V654A cells
Method: (§1) Western-blot: Snap-frozen tumor specimens sufficient for preparation of cell lysates were available from ten refractory GISTs. Cell lysis, SDS-PAGE and immunoblotting were carried out as described.^21 Membranes (Amnersham Pharmacia Biotechnology, UK) were immunoblotted overnight using anti-phospho-KIT (Y703) (Zymed, San Francisco, Calif.) antibody at dilution of 1:500. The HRP-conjugated anti-rabbit IgG was used at a dilution of 1:2500 and visualized with Enhanced Chemiluminescence (Pierce). Membranes were then stripped and re-blotted to determine total protein levels using an antibody recognizing total KIT protein (anti-CD117, A4502, DAKO, Glostrup, Denmark).
(§2) Experiments are performed with serial dilutions of the 10 mM stock. Controls are performed with solvent (DMSO) dilutions. Primary cells are obtained from collagenase disaggregated progressive tumor specimens, seeded at 60-70% confluence in 100-mm cell culture dishes (Corning Inc., Corning, N.Y.) and grown for three days in DMEM supplemented with 10% fetal bovine serum, 0.1 mM nonessential amino acids, and 1.0 mM sodium pyruvate.
(§3) The results are compared with GIST882 cells, which carry a hemizygous KIT K642E mutation. Observations are standardized for total KIT expression using anti-KIT antibody.

[2] = target: T1, KITΔ557-558/T670I (Homo sapiens, UniProt P10721, DEL557-558/T670I); details: 90 min, KITΔ557-558/T670I cells
Method: as §1, §2, §3

[3] = target: T1, KITΔ557-558/T670I; details: Ba/F3 cells
Method: (§4) Construct: Mutant PDGFRA and KIT cDNA are obtained by RT-PCR on RNA isolated from progressive tumors. The cDNA's are cloned into the retroviral vector pMSCV-puro (Clontech).
(§5) Cell culture: 293T cells are grown in DMEM supplemented with 10% FCS. Ba/F3 cells are grown in RPMI-1640 supplemented with 10% FCS and interleukin-3 (1 ng/ml). Virus as produced as described previously, see e.g. Cools J. et al., N Engl J Med 2003; 348:1201-1214.
(§6) .Ba/F3 cells transduced with the different constructs are selected with puromycin (2 μg/ml). To test for factor independent growth, Ba/F3 cells are washed 3 times in PBS and new cultures are initiated in the absence of interleukin-3. Cells that became independent on interleukin-3, are maintained in the absence of interleukin-3. For dose-response curves, Ba/F3 cells are grown in 24-well plates with different concentrations of inhibitor. The number of viable cells is determined at the start and after 24 hrs, using the AqueousOne solution (Promega).
(§7) Ba/F3 cells are IL3 dependent for their growth, but become IL3 independent upon the expression of many activated kinases, such as FIP1 L1-PDGFRA and BCR-ABL. […] The PDGFRA ΔDIM842-844 mutant serve as a control in this experiment.

[4] = target: T2, PDGFRA D842V (Homo sapiens, UniProt P16234, D842V); experiment: Dose response curves of Ba/F3 cells expressing mutant kinase (viable cells after 24 hrs); format: cell-based
T2 construct: expressed in transfected cells; host or cells: Ba/F3 murine cells, retroviral transduction with pMSCV-puro
Method: as §4, §5, §6, §7

[5] = target: T3, PDGFRA ΔDIM842-844 (Homo sapiens, UniProt P16234, DEL842-844); experiment: as above; format: cell-based
T3 construct: expressed in transfected cells; host or cells: Ba/F3 murine cells, retroviral transduction with pMSCV-puro
Method: as §4, §5, §6, §7

[6] = human trials; cited from earlier work
[7] = system: T674 I mutant form of FIPL1-PDGFRA; details: refractory CEL patients; Cools J. et al., Cancer Cell 2003; cited from earlier work
[8] = system: GISTs; details: one reported study; cited from earlier work

CO[C@@H]1[C@H](N(C)C(=O)c2ccccc2)C[C@H]2O[C@]1(C)n1c3ccccc3c3c4c(c5c6ccccc6n2c5c31)C(=O)NC4 [PKC412, N-[(9S,10R,11R,13R)-2,3,10,11,12,13-hexahydro-10-methoxy-9-methyl-1-oxo-9,13-epoxy-1H,9H-diindolo[1,2,3-gh:3′,2′,1′-lm]pyrrolo[3,4-j][1,7]benzodiazonin-11-yl]-N-methylbenzamide]
KIT autophosphorylation ([1]; 0.5 μM, 90 min): reduced
KIT autophosphorylation ([1]; ten-fold higher concentration than 0.5 μM): completely inhibited
KIT autophosphorylation ([2]; 0.5 μM): reduced
KIT autophosphorylation ([2]; 1 μM): totally inhibit
concentration at which mutant is inhibited [3]: below 1 μM
inhibition of PDGFRA D842V mutant ([4]; 1 μM): efficiently inhibits
concentration at which mutant is inhibited ([4]; PDGFRA D842V): below 1 μM
concentration at which mutant is inhibited [5]: below 1 μM
Maximum Tolerated Dose (MTD), total dose [6]: ~225 mg/day
inhibitory activity against imatinib-resistant T674I FIPL1-PDGFRA [7]: full inhibitory activity

Cc1ccc(NC(=O)c2ccc(CN3CCN(C)CC3)cc2)cc1Nc1nccc(-c2cccnc2)n1 [imatinib]
patients with primary resistance to imatinib [8]: 13.7%
